“And” between values parts separate entries of the source, which are not always exact repeats. Identical values can stand only once.
Columns and labels:
[1] = Solution stability test (HPLC) of single bile acid with maltodextrin in aqueous solution, Example I; type: physicochemical
Procedure: (§1) The stability of dosage formulations of the invention were evaluated by measuring the concentration of the relevant bile acid over time in preparations comprising soluble bile acid, a high molecular weight aqueous soluble starch conversion product, and water at various pH and temperature levels. The retention time of each bile acid may be adjusted as needed to permit individual analysis each bile acid present in a complex samples, i.e. a sample having a plurality of bile acids.
(§2) The stability tests were conducted on three different aqueous solution systems: […].
(§3) The stability tests were performed with HPLC and microscope light at various pH conditions under the normal and accelerated conditions. Accelerated conditions for testing pharmaceutical compositions have been described (Remington, The Science and Practice of Pharmacy, 19th ed., p. 640). […] Thus, the formulations of the examples are suitable for preparing a commercial liquid dosage form. […] Some formulations remain stable for over 2 years.
(§4) For the solution stability test for each bile acid, HPLC was used to measure the concentration of the relevant soluble bile acid under the following conditions: the elution solvent of 0.02 M KH2PO4:acetonitrile in a ratio of 55:45, with a pH of 3.01, the flow rate was 0.8 mL/min., the injection volume was 20 μL, wave length for detection was 195 nm. In the tables, the concentration of the indicated bile acid salt for each of the three numbered trials and the average thereof is reported on each line. The percentage indicates the relative concentration of the bile acid salt after incubation for a certain amount of time in comparison with the initial concentration.
100 mL of the aqueous solution in which one of the above bile acids is dissolved was prepared. Into the resulting clear solution, maltodextrin, a high molecular weight aqueous soluble starch conversion product, was added with agitation at room temperature. Purified water was added to adjust the total volume to be 100 mL. According to the instant invention and all examples, purified water is deionized, distilled deionized-distilled water, or a grade commonly used for pharmaceutical preparations.

[2] = Solution stability test (HPLC) of mixed bile acids with maltodextrin in aqueous solution, Example II; type: physicochemical; details: Table 2: pH 1, 50° C.
Procedure: as §1, §2, §3, §4
Into the resulting clear solution, maltodextrin was added with agitating at room temperature. Purified water was added to adjust the total volume to be 100 mL.

[3] = cited from earlier work
[4] = Table 1B: pH 10, 50° C., day 20

For `C[C@H](CCC(=O)O)[C@H]1CC[C@H]2[C@@H]3C(=O)C[C@@H]4C[C@H](O)CC[C@]4(C)[C@H]3CC[C@]12C` [KLCA, 7-ketolithocholic acid], the “Percentage of day 0 concentration” value ([1]; Table 1A: pH 7, 50° C., day 0) was 100.0%, the “concentration by HPLC, Average” value ([1]; Table 1A: pH 7, 50° C., day 0) was 0.880 and the “concentration by HPLC, trials #1-#3” value ([1]; Table 1A: pH 7, 50° C., day 0) was 0.888 and 0.879 and 0.874. The “Percentage of day 0 concentration” value ([1]; Table 1A: pH 7, 50° C., day 4) was 100.2%, the “concentration by HPLC, Average” value ([1]; Table 1A: pH 7, 50° C., day 4) was 0.882 and the “concentration by HPLC, trials #1-#3” value ([1]; Table 1A: pH 7, 50° C., day 4) was 0.871 and 0.887 and 0.888. For the same compound, the “Percentage of day 0 concentration” value ([1]; Table 1A: pH 7, 50° C., day 7) was 101.4%, the “concentration by HPLC, Average” value ([1]; Table 1A: pH 7, 50° C., day 7) was 0.893 and the “concentration by HPLC, trials #1-#3” value ([1]; Table 1A: pH 7, 50° C., day 7) was 0.897 and 0.893 and 0.888. The “Percentage of day 0 concentration” value ([1]; Table 1A: pH 7, 50° C., day 20) was 102.1%, the “concentration by HPLC, Average” value ([1]; Table 1A: pH 7, 50° C., day 20) was 0.899 and the “concentration by HPLC, trials #1-#3” value ([1]; Table 1A: pH 7, 50° C., day 20) was 0.893 and 0.909 and 0.894. For the same compound, the “Percentage of day 0 concentration” value ([1]; Table 1B: pH 10, 50° C., day 0) was 100.0%, the “concentration by HPLC, Average” value ([1]; Table 1B: pH 10, 50° C., day 0) was 0.870 and the “concentration by HPLC, trials #1-#3” value ([1]; Table 1B: pH 10, 50° C., day 0) was 0.879 and 0.874 and 0.857. For the same compound, the “Percentage of day 0 concentration” value ([1]; Table 1B: pH 10, 50° C., day 4) was 100.5%, the “concentration by HPLC, Average” value ([1]; Table 1B: pH 10, 50° C., day 4) was 0.874 and the “concentration by HPLC, trials #1-#3” value ([1]; Table 1B: pH 10, 50° C., day 4) was 0.870 and 0.873 and 0.880. The “Percentage of day 0 concentration” value ([1]; Table 1B: pH 10, 50° C., day 7) was 101.5%, the “concentration by HPLC, Average” value ([1]; Table 1B: pH 10, 50° C., day 7) was 0.884 and the “concentration by HPLC, trials #1-#3” value ([1]; Table 1B: pH 10, 50° C., day 7) was 0.893 and 0.876 and 0.882. The “Percentage of day 0 concentration” value [1, 4] was 102.2%, the “concentration by HPLC, Average” value [1, 4] was 0.889 and the “concentration by HPLC, trials #1-#3” value [1, 4] was 0.887 and 0.893. The “Percentage of day 0 concentration” value ([2]; day 0) was 100.0%, the “concentration by HPLC, Average” value ([2]; day 0) was 0.876 and the “concentration by HPLC, trials #1-#3” value ([2]; day 0) was 0.883 and 0.877 and 0.869. The “Percentage of day 0 concentration” value ([2]; day 4) was 98.3%, the “concentration by HPLC, Average” value ([2]; day 4) was 0.861 and the “concentration by HPLC, trials #1-#3” value ([2]; day 4) was 0.870 and 0.866 and 0.847. For the same compound, the “Percentage of day 0 concentration” value ([2]; day 7) was 96.4%, the “concentration by HPLC, Average” value ([2]; day 7) was 0.845 and the “concentration by HPLC, trials #1-#3” value ([2]; day 7) was 0.848 and 0.844 and 0.843. The “Percentage of day 0 concentration” value ([2]; day 20) was 74.9%, the “concentration by HPLC, Average” value ([2]; day 20) was 0.656 and the “concentration by HPLC, trials #1-#3” value ([2]; day 20) was 0.661 and 0.651. For the same compound, the “solubility in the gastric juices and in aqueous hydrochloric acid solution” value [3] was “especially insoluble”.

Source: patent US7166299B2, “Preparation of aqueous clear solution dosage forms with bile acids” (priority 1998, dated 2007)
